The values that follow come from the NIST ThermoML archive (doi:10.1021/je700037z).

Molecules are shown by their SMILES. Numbers after ± are expanded uncertainties.

The conditions of the series: 101.33 kPa, Liquid, Pycnometric method.

For the compound `CCn1cc[n+](C)c1.F[B-](F)(F)F` [1-ethyl-3-methylimidazolium tetrafluoroborate], the mass density is listed as 1290 ± 7 kg/m3 (285 K); 1286 ± 7 kg/m3 (290 K); 1282 ± 7 kg/m3 (295 K); 1279 ± 7 kg/m3 (300 K); 1275 ± 7 kg/m3 (305 K).
